Data on 1 molecule can be found in patent US12577238B2, “Compositions and methods for modulating inflammatory and degenerative disorder” (University of Southern California, priority 2018, dated 2026).

“Also recorded” adds a separate entry of the source.

In one assay the target is T1, OSMR and gp130 (Homo sapiens, UniProt P40189).
T1 construct: FLAG; expressed in transfected cells; host or cells: adult human chondrocytes
T1 sequence (P40189 23-918): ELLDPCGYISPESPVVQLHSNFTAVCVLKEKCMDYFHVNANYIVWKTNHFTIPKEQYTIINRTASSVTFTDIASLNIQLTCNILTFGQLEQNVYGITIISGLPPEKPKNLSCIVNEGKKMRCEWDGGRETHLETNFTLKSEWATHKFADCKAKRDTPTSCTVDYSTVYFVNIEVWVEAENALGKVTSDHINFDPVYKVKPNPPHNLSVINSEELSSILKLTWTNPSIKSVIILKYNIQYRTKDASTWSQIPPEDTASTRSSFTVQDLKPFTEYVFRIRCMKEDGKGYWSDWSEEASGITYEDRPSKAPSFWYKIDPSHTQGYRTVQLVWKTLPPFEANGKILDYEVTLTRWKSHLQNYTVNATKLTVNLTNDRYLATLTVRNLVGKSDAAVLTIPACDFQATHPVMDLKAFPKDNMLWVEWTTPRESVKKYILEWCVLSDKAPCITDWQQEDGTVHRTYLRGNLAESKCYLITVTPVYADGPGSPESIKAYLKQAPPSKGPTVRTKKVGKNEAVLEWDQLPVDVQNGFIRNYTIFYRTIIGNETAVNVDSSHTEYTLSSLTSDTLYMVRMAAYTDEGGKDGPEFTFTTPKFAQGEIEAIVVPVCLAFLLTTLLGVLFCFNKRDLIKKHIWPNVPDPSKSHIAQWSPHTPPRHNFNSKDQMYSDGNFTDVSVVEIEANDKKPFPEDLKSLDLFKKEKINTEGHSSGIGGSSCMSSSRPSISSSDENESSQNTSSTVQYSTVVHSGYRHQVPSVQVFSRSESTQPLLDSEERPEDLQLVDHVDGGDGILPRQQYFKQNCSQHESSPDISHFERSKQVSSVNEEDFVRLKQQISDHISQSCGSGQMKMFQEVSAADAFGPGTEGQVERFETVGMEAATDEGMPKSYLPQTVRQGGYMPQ
Put plainly: Receptor competition, gp130-Flag pull-down, OSMR. Type of assay: cell-based. As to conditions: in the presence of OSM; IP-FLAG, WB-OSMR. On the procedure:
Adult human chondrocytes transfected with gp130-Flag were incubated with various concentrations of RCGD 423 in the presence of IL-6 or OSM; levels of immoprecipitated IL-6R or OSMR were used to calculate the dissociation constant (Kd).
Adult human chondrocytes; IP-FLAG AB (transfected with gp130 FLAG plasmid), WB-OSMR.
This property would be of great interest due to the pro-inflammatory and pro-catabolic effects of these cytokines in the joint space. […] To assess whether RCGD 423 could directly compete for gp130 occupancy, human adult articular chondrocytes were transfected with tagged gp130 and then pulled down associated proteins±RCGD 423 and/or IL-6.

Assay [1] has as its system adult pig articular chondrocytes. Nature of the assay: Proteins mediating pro-inflammatory signals with or without OSM. It is filed as cell-based. The source says:
(§1) Firstly, RCGD 423 was a hit from a library; this made the depth of the discovery surrounding the technology less comprehensive. Additionally, the physical properties of RCGD 423 (solubility, potency, functional groups) could be improved. Significant gains in these areas could potentially result in a first-in-class injectable for the treatment of post-traumatic OA. Moreover, the potential risks associated with promoting MYC stabilization and proliferation in gp130^+ cells as well as large increases in active STAT3 protein was of concern. […] These compounds were then screened in adult pig articular chondrocytes and cartilage explants, seeking compounds that could inhibit the catabolic effects of OSM but not drive increases in MYC and pSTAT3 protein levels. […] Together, these preliminary data identify CX-011 (B8) as a highly anti-inflammatory, anti-catabolic alternative to RCGD 423, with increased “drug-like” properties and reduced potential molecular liabilities.

Assay [2] relates to pig articular cartilage explants. Nature of the assay: Matrix degradation assay, OSM-driven, pig articular cartilage explants. Type of assay: cell-based. As to the method:
FIG. 22A-C show matrix degradation assays.
72 hour exposure to the drug and OSM. […] Effect is concentration dependent and increases with increase in drug concentration.
as §1

Assay [3] addresses T2, gp130 (Homo sapiens, UniProt P40189).
T2 construct: endogenous in cells; host or cells: adult human articular chondrocytes (three donors)
T2 sequence (P40189 23-918): T1 sequence (P40189 23-918)
Nature of the assay: OSM-mediated activation of gp130 in adult human articular chondrocytes. It is filed as cell-based. The note with it: three independent donors. The source says: 423F is the positive control drug. Adult human articular chondrocytes from three independent donors were used to generate the results.
Adult human articular chondrocytes from three independent donors were used to generate the results.
Adult human articular chondrocytes from three independent donors were used.

In assay [4] the target is T3, gp130 (Rattus norvegicus, UniProt P40190).
T3 construct: from tissue; host or cells: rat knee joint in vivo (Sprague-Dawley wild-type in the CFA model)
T3 sequence (P40190 23-918): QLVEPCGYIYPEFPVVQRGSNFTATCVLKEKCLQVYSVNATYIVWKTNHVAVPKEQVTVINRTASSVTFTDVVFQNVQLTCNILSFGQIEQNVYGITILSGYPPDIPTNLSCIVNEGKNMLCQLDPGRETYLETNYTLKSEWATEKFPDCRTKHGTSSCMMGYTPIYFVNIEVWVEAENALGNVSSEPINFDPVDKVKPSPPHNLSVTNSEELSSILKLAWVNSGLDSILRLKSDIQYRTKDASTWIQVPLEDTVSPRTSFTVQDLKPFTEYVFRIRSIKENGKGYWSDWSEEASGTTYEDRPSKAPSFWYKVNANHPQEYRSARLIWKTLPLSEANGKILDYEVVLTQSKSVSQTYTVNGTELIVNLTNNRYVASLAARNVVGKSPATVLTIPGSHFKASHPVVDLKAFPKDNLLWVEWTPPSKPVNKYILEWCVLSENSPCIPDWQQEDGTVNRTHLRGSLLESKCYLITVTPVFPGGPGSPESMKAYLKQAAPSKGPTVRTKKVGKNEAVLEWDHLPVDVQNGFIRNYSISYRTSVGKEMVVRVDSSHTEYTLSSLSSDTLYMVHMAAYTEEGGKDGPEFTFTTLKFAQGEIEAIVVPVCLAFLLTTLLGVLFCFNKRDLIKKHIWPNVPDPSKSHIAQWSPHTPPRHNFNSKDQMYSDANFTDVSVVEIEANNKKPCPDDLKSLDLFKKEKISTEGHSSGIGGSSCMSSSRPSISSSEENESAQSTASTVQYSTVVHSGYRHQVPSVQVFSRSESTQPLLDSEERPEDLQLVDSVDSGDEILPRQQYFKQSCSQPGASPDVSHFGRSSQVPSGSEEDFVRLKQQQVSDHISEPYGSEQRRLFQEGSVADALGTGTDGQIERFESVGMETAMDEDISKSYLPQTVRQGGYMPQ
Put plainly: CFA-induced systemic inflammatory response in rats, intraarticular drug. It is filed as in vivo. As to the method:
Rat (Sprague-Dawley wild-type) were injected with Complete Freund's Adjuvant (CFA) to induce systemic inflammatory response. Drug (805) was injected intraarticularly; multiple doses (A and B, N=3).

The test system of another assay is adult synovial cells. Nature of the assay: OSM-mediated cytokine secretion by adult synovial cells. It is filed as cell-based. The note with it: 10 μM. As to the method:
Adult synovial cells from three independent donors were used. Molecule 805 was used at 10 μM.

A short description of assay [5]: Oral single dose, synovial inflammation in rat joints. As to conditions: oral administration of a single dose. It is filed as in vivo.
The nature of assay [6]: Medial meniscal tear surgery, intra-articular injection. Type of assay: in vivo. The note with it: following medial meniscal tear surgery.
Assay [7] in a line: Survival of NZM.2328 female mice (lupus nephritis-like syndrome). Type of assay: in vivo. The note with it: intraperitoneally twice weekly, 10 mg/kg.

As for `Cc1ccc(-c2csc(NC(=O)c3ccccn3)n2)cc1` [B805], at OSMR and gp130, the “competition with OSMR for gp130 occupancy / OSMR-gp130 interaction” value is “disrupts the interaction between OSMR and gp130 in a concentration-dependent manner”. Besides, the “increases in proteins mediating pro-inflammatory signals” value in assay [1] (in the presence of OSM) is “strongly inhibits increases in these proteins in the presence of OSM”. For the same molecule, the “endogenous levels of proteins mediating pro-inflammatory signals” value in assay [1] (without OSM) was “little effect”. In addition, in assay [2] (driven by OSM), the “breakdown of collagen and aggrecan (aggrecan-neo, collagen-neo epitopes)” value was “strongly prevent the breakdown of collagen and aggrecan; also recorded: prevents the breakdown of collagen and aggrecan”; the “increase in catalytic enzymes / induction of proteolytic gene expression” value is listed as “prevents”. The “breakdown of collagen and aggrecan (aggrecan-neo, collagen-neo epitopes)” value in assay [2] (fresh pig cartilage explants, 72 hour exposure to drug and OSM) is “strongly prevents the breakdown of collagen and aggrecan”. Also, at gp130 [3], the “OSM-mediated activation of downstream effector JAK2” value is “strongly inhibits” and the “OSM-mediated activation of gp130” value was “inhibit OSM-mediated activation of gp130; also recorded: strongly inhibits OSM-mediated activation of gp130”. For the same molecule, the “activation of gp130 in sick animals” value on gp130 [4] was “prolonged effect preventing activation gp130 in sick animals”. Moreover, the “inflammatory response in vivo” value at gp130 [4] (multiple doses, N=3) is “inhibits inflammatory response in vivo in a dose-dependent manner”. Besides, in the assay on adult synovial cells, the “OSM-mediated secretion of IL-6” value is reported as “strongly inhibits” and the “OSM-mediated secretion of TNF-α” value is “strongly inhibits”. In assay [5], the synovial inflammation entry is “reduced synovial inflammation in rat joints”. Moreover, the cartilage degeneration result in assay [6] was “reduces cartilage degeneration”. Also, in assay [7], the survival entry is recorded as “survive longer”.
